The record followed here is ChEMBL document CHEMBL1153720, “Three dimensional pharmacophore modelling for c-Kit receptor tyrosine kinase inhibitors” (Eur J Med Chem, 2010).

In general, IC50 refers to the concentration at which inhibition is half-maximal. A lower IC50 goes with inhibition by little substance.

The assay addresses Mast/stem cell growth factor receptor Kit (Homo sapiens, UniProt P10721). The assay can be described thus: Inhibition of c-Kit by HTRF method. Background: Time-resolved FRET reads energy transfer from a long-lived donor to a nearby acceptor.

Sequence of Mast/stem cell growth factor receptor Kit (P10721 whole entry): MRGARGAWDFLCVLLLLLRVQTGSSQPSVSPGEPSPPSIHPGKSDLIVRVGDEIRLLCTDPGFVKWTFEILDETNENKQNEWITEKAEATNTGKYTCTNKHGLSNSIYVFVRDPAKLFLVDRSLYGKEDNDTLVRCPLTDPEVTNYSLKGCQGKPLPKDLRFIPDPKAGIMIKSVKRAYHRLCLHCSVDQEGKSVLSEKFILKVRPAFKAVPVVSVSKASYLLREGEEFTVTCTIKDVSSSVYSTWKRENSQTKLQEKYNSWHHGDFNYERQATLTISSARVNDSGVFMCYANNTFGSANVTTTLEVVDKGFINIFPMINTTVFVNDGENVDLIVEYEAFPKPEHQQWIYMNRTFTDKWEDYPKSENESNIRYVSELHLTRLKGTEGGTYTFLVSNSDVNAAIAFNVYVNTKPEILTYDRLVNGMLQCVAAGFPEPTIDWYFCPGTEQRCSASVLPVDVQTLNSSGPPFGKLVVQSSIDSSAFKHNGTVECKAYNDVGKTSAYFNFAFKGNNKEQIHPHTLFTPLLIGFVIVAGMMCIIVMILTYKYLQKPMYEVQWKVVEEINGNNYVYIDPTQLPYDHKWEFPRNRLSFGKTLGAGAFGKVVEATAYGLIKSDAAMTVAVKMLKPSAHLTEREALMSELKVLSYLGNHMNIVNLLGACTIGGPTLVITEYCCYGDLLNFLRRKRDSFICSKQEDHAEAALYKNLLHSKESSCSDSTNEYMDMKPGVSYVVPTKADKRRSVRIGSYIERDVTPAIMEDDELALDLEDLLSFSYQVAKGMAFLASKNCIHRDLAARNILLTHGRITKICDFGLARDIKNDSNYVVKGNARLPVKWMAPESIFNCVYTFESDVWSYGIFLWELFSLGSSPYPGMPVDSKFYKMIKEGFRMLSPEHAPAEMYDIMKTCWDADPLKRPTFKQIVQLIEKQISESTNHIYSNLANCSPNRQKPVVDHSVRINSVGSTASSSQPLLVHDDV

As for `Cc1ccccc1NC(=O)Nc1ccc(-c2c(C)sc3ncnc(N)c23)c(Cl)c1`, the IC50 is 200 nM.
